The values that follow come from US4103010A, “(3-Piperazinocarbonylimino-quanidino)-isoxazoles” (Aron S.A.R.L., priority 1975, dated 1978).

Where two headings read alike, the source gives them in different places.

Data set [1] in a line: acute toxicity investigation in mice. Particulars: mouse, in vivo.
In data set [2] the test system is Doca rats. Description: decrease of the systolic blood pressure in Doca rats. Particulars: Rattus norvegicus, oral, 2 × 3 mg/kg, with respect to original value, read-out: percent decrease of the systolic blood pressure. Type of data set: in vivo. As for the experimental part:
(§1) The above results are confirmed by the results of an investigation of the action on the control of blood pressure. On oral administration of a dosage of 2 × 3 mg/kg of compound to Doca rats (Technique according to Green and co-workers, Am. J. Physiol., 1952, 170, p. 94) and to Grollman rats (Technique according to Grollman, Proc. Soc. Exp. Biol. Med., 1944, 57, p. 102), the percent decrease of the systolic blood pressure with respect to its original value is noted.

The test system of data set [3] is uptake of ^3 H noradrenalin by the synaptosomes of a rat hypothalamus homogenate. Description: inhibition of the uptake of ^3 H noradrenalin by synaptosomes of a rat hypothalamus homogenate. In kind it is biochemical. Particulars: with respect to the control test. The source says: The compounds of the formula (I) are capable of modifying the accumulation of noradrenalin and particularly to inhibit the uptake of ^3 H noradrenalin by the synaptosomes of a rat hypothalamus homogenate prepared according to Banerjee, Snyder and Mechoulam (J. Pharmacol. Exp. Ther., 194, 1, 74, 1975). This inhibition of the uptake of ^3 H noradrenaline is a known property of various compounds having an activity on the central nervous system and/or on the sympathetic nervous system, particularly a hypotensive effect (J. Glowinski and J. Axelrod, effects of Drugs on the Disposition of ^3 H norepinephrine in the Rat Brain, Pharmacological Reviews, Vol. 18, No […], Part I, 1966).
They are expressed as percent inhibition of the uptake with respect to the control test.

Data set [4] deals with Grollman rats. Briefly: decrease of the systolic blood pressure in Grollman rats. Type of data set: in vivo, rat. Particulars: oral, 2 × 3 mg/kg, with respect to original value. As for the experimental part:
as §1

Where [5] appears, read: iv, read-out: LD50 (mg/kg) i.v.
Where [6] appears, read: po, read-out: LD50 (mg/kg) p.o.
The mark [7] stands for this setting: ultimate molar concentration 5 × 10^-5 M.
Where [8] appears, read: ultimate molar concentration 5 × 10^-6 M.
Setting [9] is: ultimate molar concentration 5 × 10^-4 M.

On to `Cc1cc(N(C)C(=N)NC(=N)N)no1` [Example 7], for which the values for the LD50 in data set [1] (setting [5]) and in data set [1] (setting [6]) were 70 mg/kg and over 1000 mg/kg, respectively. In data set [2], the inhibition in vivo at 3 mg/kg came to 15%.
In the case of `Cc1conc1NC(=N)NC(=N)N` [Example 8], the “inhibition % of the uptake of ^3 H noradrenalin” value (“inhibition %” for short) was determined as 55% in data set [3] (setting [7]) and 36% in data set [3] (setting [8]).
Consider `Cc1cc(NC(=N)NC(=N)N2CCN(C)CC2)no1` [Example 19], for which, in data set [2], the inhibition in vivo at 3 mg/kg worked out at 20%.
Consider `Cc1noc(C)c1NC(=N)NC(=N)N` [Example 22], for which the LD50 was over 100 mg/kg in data set [1] (setting [5]) and over 1500 mg/kg in data set [1] (setting [6]).
Turning to `CCCCNC(=N)NC(=N)Nc1c(C)noc1C` [Example 23], the “inhibition %” value in data set [3] (setting [9]) was found to be 51%. Besides, in data set [1] (setting [6]), the LD50 is over 750 mg/kg.
Taken in the same sequence, the figures for `Cc1noc(C)c1NC(=N)NC(=N)N(C)C` [Example 24] were 28.4% and over 750 mg/kg.
Regarding `Cc1noc(NC(=N)NC(=N)N)c1C` [Example 25], the “inhibition %” value in data set [3] (setting [7]) worked out at 45.5%. For the same compound, the figures for the LD50 in data set [1] (setting [5]) and in data set [1] (setting [6]) were 20 mg/kg and 300 mg/kg, respectively. Besides, the inhibition in vivo at 3 mg/kg in data set [2] turned out to be 20%.
In the case of `CCCCNC(=N)NC(=N)Nc1onc(C)c1C` [Example 26], the “inhibition %” value in data set [3] (setting [7]) worked out at 39.6%. Also, the LD50 in data set [1] (setting [5]) is 35 mg/kg; in data set [1] (setting [6]), 250 mg/kg.
`CCCN1CCN(C(=N)NC(=N)Nc2cc(C)on2)CC1` [Example 28]: in data set [4], the “percent decrease of the systolic blood pressure” value came out at 18%. The “inhibition %” value in data set [3] (setting [9]) is on record as 60.2%; in data set [3] (setting [7]), 20%. For the same compound, the LD50 in data set [1] (setting [6]) stood at 400 mg/kg. Moreover, the inhibition in vivo at 3 mg/kg in data set [2] came out at 18%.
As for `Cc1conc1NC(=N)NC(=N)N1CCN(C)CC1` [Example 29], in data set [4], the “percent decrease of the systolic blood pressure” value was 15%. Moreover, the “inhibition %” value in data set [3] (setting [7]) was found to be 65.8%; in data set [3] (setting [8]) it was 30.8%. Besides, the LD50 in data set [1] (setting [6]) was over 1000 mg/kg. Also, in data set [2], the inhibition in vivo at 3 mg/kg is 15%.
For `Cc1cc(NC(=N)NC(=N)N2CCNCC2)no1` [Example 30], in data set [3] (setting [9]), the “inhibition %” value is reported as 51%. Besides, the LD50 in data set [1] (setting [6]) was over 1000 mg/kg. For the same compound, the inhibition in vivo at 3 mg/kg in data set [2] came out at 10%.
